Structures can show the parent of a compound that is named as a salt. Where two headings read alike, the source gives them in different places.
Tests used:
[1] = Screening: visual/manual check whether a coalesced film formed; assay type: physicochemical
[2] = 25° C.; cited from earlier work
[3] = unitless; cited from earlier work
[4] = ethylcellulose dispersion plus additive, intact on and after removal from substrate

Compound | Film? Did the sample form a coalesced film? (yes or no) [1, 4] | W. Sol. solubility in water [2] | logP logarithm of the water-octanol partition coefficient [3] | Film? Did the sample form a coalesced film? (yes or no) [1]
CCOC(=O)c1ccccc1C(=O)OCC [diethyl phthalate] | yes | – | – | –
OCCc1ccccc1 [phenylethyl alcohol] | yes | 20 mg/mL | – | –
OC[C@@H](O)[C@@H](O)[C@H](O)[C@H](O)CO [mannitol] | no | 182 mg/mL | −3.62 | –
OCC(O)CO [glycerol] | no | 500 mg/mL | −1.85 | –
OCCNCCO [diethanolamine] | no | – | −1.761 | –
CCCCCCCC/C=C\CCCCCCCCO [oleyl alcohol] | yes | – | 7.562 | –
COC(=O)c1ccccc1C(=O)OC [dimethyl phthalate] | – | – | – | yes
OC[C@@H](O)[C@@H](O)[C@H](O)[C@@H](O)CO [sorbitol] | no | 182 mg/mL | −3.262 | –
O=C(OCc1ccccc1)c1ccccc1 [benzyl benzoate] | yes | – | 3.81 | –
CCOC(=O)CC(O)(CC(=O)OCC)C(=O)OCC [triethyl citrate] | yes | – | 1.267 | –
OC[C@@H](O)[C@H](O)[C@@H](O)CO [xylitol] | no | 1500 mg/mL | −2.65 | –
CCCCCCCCCCCCCCCCCC(=O)O [stearic acid] | yes | – | – | –
CCCOC(=O)c1cc(O)c(O)c(O)c1 [propyl gallate] | yes | – | 1.779 | –
O=C(O)CCC(=O)O [succinic acid] | no | – | −0.933 | –
CC(C)(C)CC(C)(C)c1ccc(OCCOCC[N+](C)(C)Cc2ccccc2)cc1 [benzethonium chloride] | – | – | – | no
CC[N+](CC)(CC(=O)Nc1c(C)cccc1C)Cc1ccccc1 [denatonium benzoate] | no | – | −0.088 | –
CCCCCCCC/C=C\CCCCCCCC(=O)O [oleic acid] | yes | – | – | –
CC(=O)OCC(COC(C)=O)OC(C)=O [triacetin] | yes | 1.16 mg/mL | 0.216 | –
CC(O)CO (stereo not drawn) [propylene glycol] | yes | – | −1.008 | –
CCCCOC(=O)CC(O)(CC(=O)OCCCC)C(=O)OCCCC [tributyl citrate] | yes | – | 4.324 | –
CCCCC/C=C\C/C=C\CCCCCCCC(=O)O [linoleic acid] | yes | – | – | –
OC[C@@H](O)[C@@H](O[C@H]1O[C@H](CO)[C@@H](O)[C@H](O)[C@H]1O)[C@H](O)[C@@H](O)CO [maltitol] | no | – | – | –
OCCOc1ccccc1 [2-phenoxy ethanol, 2-Phenoxyethanol] | – | 30 mg/mL | – | yes
OCc1ccccc1 [benzyl alcohol] | yes | 42.9 mg/mL | – | –
CCCCOC(=O)CCCCCCCCC(=O)OCCCC [dibutyl sebacate] | yes | – | 5.958 | –
